In patent US9549914B2, “Treatment of human cytomegalovirus by modulating Wnt” (priority 2014, dated 2017):
Where two headings read alike, the source gives them in different places.

Key:
[1] = tested on: Wnt/β-catenin signaling proteins; experiment: Western blot of Wnt/β-catenin signaling proteins in HSV1-infected HFFs; format: cell-based, Human; conditions: 48 hpi with HSV1-KOS (Dlux/OriS), concentrations resulting in full HCMV inhibition
Experimental: FIG. 7: Effect of monensin, nigericin and salinomycin on expression of Wnt/β-catenin signaling proteins in non-infected and HSV1-infected HFFs. FIG. 7A: Expression of Wnt5a/b, Axin1, β-catenin, and actin (control) in non-infected (Mock), and HSV1-infected HFFs (MOI=0.1) treated with monensin (0.1 μM), nigericin (0.1 μM), salinomycin (1 μM) and GCV (10 μM) was determined after 48 h. Representative data from three independent experiments is shown. FIG. 7B: Expression of Wnt5a/b, Axin1, β-catenin, and actin (control) in non-infected (Mock), and HSV1-infected HFFs (MOI=0.1) treated with monensin (0.2 μM), nigericin (0.2 μM) and salinomycin (2 μM) and GCV (10 μM) was determined after 48 h. Representative data from three independent experiments is shown.
(§1) Cell lysates were quantified for protein content using bicinchoninic acid (BCA) protein assay kit (Pierce Chemical, Rockford, Ill.). Equivalent amount of proteins were mixed with an equal volume of 2× sample buffer (125 mM Tris-HCL, pH 6.8, 4% SDS, 20% glycerol and 5% β-mercaptoethanol) and boiled at 100° C. for 10 min (except for Wnt and pWnt detection for which samples were not boiled). Denatured proteins were resolved in Tris-glycine polyacrylamide gels (10-12%) and transferred to polyvinylidine difluoride (PVDF) membranes (Bio-Rad Laboratories, Hercules, Calif.) by electroblotting. Membranes were incubated in blocking solution [5% non-fat dry milk and 0.1% Tween-20 in PBS (PBST)] for 1 hr, washed three times with PBST, and incubated with appropriately diluted primary antibodies at 4° C. overnight. Membranes were washed with PBST and incubated with horseradish peroxidase-conjugated secondary antibodies in PBST for 1 hr at room temperature. Following washing with PBST, protein bands were visualized by chemiluminescence using SuperSignal West Dura and Pico reagents (Pierce Chemical, Rockford, Ill.). The following antibodies were used for detection of CMV proteins: mouse anti-IE1 and IE2, (MAb810); mouse anti-beta-actin antibody (Millipore, Billerica, Mass.); mouse anti-UL44 (Santa Cruz biotechnology Santa Cruz, Calif.); mouse anti-pp65 (Vector laboratories, Burlingame, Calif.); horseradish peroxidase (HRP)-conjugated anti-rabbit IgG (Cell Signaling Technology, Beverly, Mass.); and HRP-conjugated anti-mouse IgG, (GE Healthcare, Waukesha, Wis.). The following antibodies were used for detection of proteins in the Wnt pathway: anti-Wnt5a/b, Wnt, phospho-Wnt, Dvl2, Dvl3 and axin1 (Cell Signaling), β-catenin (E-5) (Santa Cruz biotechnology).

[2] = tested on: HSV2 clinical isolates; experiment: HSV2 plaque assay in Vero cells; format: cell-based; conditions: read-out: HSV2 EC50 (μM) Plaque Number (Vero)
[3] = tested on: HCMV; experiment: HCMV yield reduction (infectious virus released into medium, plaques); format: cell-based, Human Cytomegalovirus (HCMV)
[4] = in vitro; conditions: human
Experimental: (§3) Cell viability was determined using a colorimetric MTT cell proliferation assay following manufacturer's instructions (Sigma-Aldrich, St. Louis, Mo.). HFFs were treated with varying concentrations of monensin, nigericin, and salinomycin and incubated at 37° C. for 3 days. After the addition of 20 μl/well of MTT (3-(4,5-Dimethyl-2-thiazolyl)-2,5-diphenyl-2H-tetrazolim bromide) (5 mg/ml in PBS), and shaking at 150 rpm for 5 minutes the plates were incubated at 37° C. for 3 hours. Conversion of yellow solution into dark blue formazan by mitochondrial dehydrogenases of living cells was quantified by measuring absorbance at 570 nm. Viable cells in culture medium containing vehicle alone (0.1% DMSO) were referred to as 100% cell viability. For each cell type used for virus infection and drug treatment, the MTT assay was performed at the same time points as the antiviral assay.

[5] = tested on: luciferase HSV1-KOS/Dlux/oriS; experiment: HSV1-KOS/Dlux/oriS yield reduction assay in HFFs; format: cell-based; conditions: Human alphaherpesvirus 1, 16 h, read-out: HSV1 EC50 (μM) Yield Reduction (HFFs)
[6] = tested on: HSV1 clinical isolates; experiment: HSV1 plaque assay in Vero cells; format: cell-based; conditions: read-out: HSV1 EC50 (μM) Plaque Number (Vero)
[7] = tested on: pp28-luciferase HCMV Towne strain; experiment: microbe, parasite or virus in culture; format: cell-based, Human Cytomegalovirus (HCMV); conditions: for SI (selectivity index): HCMV in HFFs, mean ± SD; for EC50: Human betaherpesvirus 5, read-out: EC50 (μM), anti-HCMV activity
Experimental: The pp28-luciferase HCMV Towne strain was constructed as previously described (14). This virus expresses luciferase under the control of the late CMV gene promoter, pp28. Luciferase expression is strongly activated 48-72 hours post infection (hpi). […] A GCV-resistant HCMV strain was obtained from a patient with CMV disease. […] Human herpes virus strains were: luciferase HSV1-KOS/Dlux/oriS (15) and clinical isolates of HSV1 and HSV2. All clinical isolates were provided by the clinical virology laboratory with no identifiers that can link to a specific subject. The Johns Hopkins Office of Human Subject Research Institutional Review Board determined that this research qualified for an exemption.
Human Foreskin Fibroblasts (HFFs) passage 12-16 (ATCC, CRL-2088™) were grown in Dulbecco's Modified Eagle Medium (DMEM) containing 10% fetal bovine serum (FBS) (Gibco, Carlsbad, Calif.) in a 5% CO2 incubator at 37° C. and used for infection with HCMV or HSV at multiplicity of infection of 1 PFU/cell (MOI=1) unless otherwise specified. Following 90 minute adsorption (60 min for HSV), media was removed and cells were washed with PBS. DMEM with 4% FBS containing compounds was added to each well. For HCMV, infected, treated HFFs were collected at 72 hpi and lysates were assayed for luciferase activity using a luciferase assay kit (Promega, Madison, Wis.) on GloMax®-Multi+ Detection System (Promega) according to manufacturer's instructions.

[8] = tested on: HCMV; experiment: Reversibility of HCMV inhibition, real-time PCR in supernatants; format: cell-based, Human Cytomegalovirus (HCMV); conditions: treated 1, 2 or 3 days, then fresh media; HCMV DNA in supernatants at day 6 post infection
Text: FIG. 4: Effects of monensin, nigericin, salinomycin and GCV on replication characteristics. A. Reversibility of HCMV replication: Compounds were present in HCMV-infected HFFs at the indicated intervals in days. Virus DNA was quantified by real-time PCR in supernatants at 6 days post infection. Data represent mean values (±SD) of triplicate determinations from two independent experiments. B. Inhibition of DNA replication, pp28 expression and virus DNA yield: DNA replication was quantified by real-time PCR in cells collected 48 hpi. Pp28-luciferase activity was measured in cell lysates collected at 72 hpi. Virus DNA yield was measured by real-time PCR in supernatants of infected cells collected at 96 hpi. The concentration of compounds was: 0.1 μM for monensin and nigericin, 1 μM for salinomycin and 10 μM for GCV. Data represent mean values (±SD) of triplicate determinations from two independent experiments.
The quantitative CMV real-time PCR assay is based on detection of a 151 bp region from the highly conserved US17 gene (16). The limit of detection of the assay is 100 copies/mL (3.0 copies/reaction), and the measurable range is 2.4-8.0 log10 copies/mL. The PCR was performed using a total reaction volume of 50 μL, including TaqMan 2× Universal PCR Master Mix (Applied Biosystems, Foster City, Calif.), primers (300 nM final concentration), FAM-labeled probe (200 nM final concentration), dH2O, and template (10 μl). Amplification was performed on a 7500 Real-Time PCR System (Applied Biosystems, Foster City, Calif.). PCR conditions were: 50° C. for 2 min, 95° C. for 10 min, 40 cycles of 95° C. for 15 s and 60° C. for 60 s. Quantification standards were prepared by cloning the US17 amplicon in the pCR®2.1-TOPO® plasmid vector (Invitrogen, Carlsbad, Calif.). Serial 10-fold dilutions of plasmid from 7.0 to 1.0 log10 copies/reaction were included with each assay and used to establish a standard curve. The slope and R^2 of the standard curve were −3.3±0.1 and >0.990, respectively. Assay controls included quantified CMV AD 169 DNA (Advanced Biotechnologies Inc.) and quantified Towne CMV at 3.0 and 5.0 log10 copies/mL. Quantitative CMV data were expressed as viral DNA copies per milliliter. The real-time PCR was used for quantification of HCMV replication in cell lysates at 48 hpi, virus DNA yield in supernatants at 96 hpi and for a reversibility assay (14, 16).
To test whether HCMV inhibition by monensin, nigericin and salinomycin was reversible, infected HFFs were treated for 1, 2, or 3 days followed by removal of the media containing the compounds, and adding fresh media until 6 days post infection. HCMV DNA was quantified in supernatants of infected cells at day 6 post infection by real-time PCR.

[9] = tested on: Wnt/β-catenin signaling proteins; experiment: Western blot of Wnt-signaling proteins in non-infected and HCMV-infected HFFs; format: cell-based, Human; conditions: 100 nM
Experimental: (§2) FIG. 5: Effect of Nigericin and GCV on expression of HCMV and Wnt/β-catenin signaling proteins. A. Expression of HCMV proteins in infected HFFs treated with nigericin (100 nM) and GCV (10 μM). Compounds were added after virus adsorption and cell lysates were collected for western blot at 24, 48 and 72 hpi. Control-no treatment. B. Expression of Wnt-signaling proteins was determined in non-infected (Mock), and HCMV-infected HFFs treated with nigericin (100 nM) and GCV (10 μM) at indicated time points. Representative data from three independent experiments are shown.
as §1

[10] = tested on: HCMV proteins (IE1, IE2, UL44, pp65); experiment: Western blot of HCMV proteins in infected HFFs; format: cell-based, Human Cytomegalovirus (HCMV)
Experimental: as §2, §1

[11] = in vitro; conditions: human; remark: listed apart in the source
Experimental: as §3

[12] = tested on: GCV-resistant HCMV strain (UL97 mutation H520Q); experiment: GCV-resistant HCMV strain, virus DNA yield by real-time PCR; format: cell-based, Human Cytomegalovirus (HCMV); conditions: Human betaherpesvirus 5, read-out: EC50 against GCV-resistant HCMV strain
Experimental: HFFs cells were infected with a GCV-resistant HCMV and treated with monensin (0.01 μM-1 μM), nigericin (0.005 μM-0.5 μM), salinomycin (0.03 μM-10 μM) or GCV (1 μM-30 μM). Virus DNA yield was quantified by real-time PCR in supernatants of infected cells 96 hpi. Data represent mean values (±SD) of triplicate determinations from two independent experiments.
The quantitative CMV real-time PCR assay is based on detection of a 151 bp region from the highly conserved US17 gene (16). The limit of detection of the assay is 100 copies/mL (3.0 copies/reaction), and the measurable range is 2.4-8.0 log10 copies/mL. […] Quantification standards were prepared by cloning the US17 amplicon in the pCR®2.1-TOPO® plasmid vector (Invitrogen, Carlsbad, Calif.). […] Assay controls included quantified CMV AD 169 DNA (Advanced Biotechnologies Inc.) and quantified Towne CMV at 3.0 and 5.0 log10 copies/mL. Quantitative CMV data were expressed as viral DNA copies per milliliter. The real-time PCR was used for quantification of HCMV replication in cell lysates at 48 hpi, virus DNA yield in supernatants at 96 hpi and for a reversibility assay (14, 16).

[13] = in vitro; conditions: human; remark: listed apart in the source
Experimental: as §3

[14] = Human alphaherpesvirus 2, 48 h, Vero cells, 200 PFU/well, plaques counted after 2 days
[15] = infected HFFs treated at 0.1 μM
[16] = Human alphaherpesvirus 1, 48 h, Vero cells, 200 PFU/well, plaques counted after 2 days
[17] = non-infected and HCMV-infected HFFs, all time points (24, 48, 72 hpi)

SMILES | expression of Wnt 5a/b in HSV1-infected HFFs [1] | expression of axin 1 in HSV1-infected HFFs [1] | expression of β-catenin in HSV1-infected HFFs [1] | CC50 at 3 days [4] | EC50 [5] | SI (selectivity index) [7] | EC50 [7] | reversibility of HCMV inhibition [8] | EC50 [2, 14] | infectious virus released into the medium (yield reduction), plaques [3, 15] | EC50 [6, 16] | other results
CC[C@@H](C(=O)[C@@H](C)[C@@H](O)[C@H](C)[C@@H]1O[C@@H]([C@@H](CC)C(=O)O)CC[C@@H]1C)[C@H]1O[C@]2(C=C[C@@H](O)[C@]3(CC[C@@](C)([C@H]4CC[C@](O)(CC)[C@H](C)O4)O3)O2)[C@H](C)C[C@@H]1C [Salinomycin, salinomycin] | inhibition | did not reduce | did not reduce | 28400 ± 5900 nM | 0.6 ± 0.1 µM | 143 ± 18 | 0.2 ± 0.01 µM | fully reversible |  |  |  | EC50 ([2]; Human alphaherpesvirus 2, Vero, 48 h): 0.07 ± 0.03 µM; infectious virus released into the medium (yield reduction), plaques ([3]; infected HFFs treated at 1 μM): complete absence of plaques; EC50 ([6]; Human alphaherpesvirus 1, Vero, 48 h): 0.58 ± 0.07 µM
CO[C@@H]1C[C@@H](C[C@H]2CC[C@H](C)[C@H]([C@@H](C)C(=O)O)O2)O[C@]2(O[C@](C)([C@H]3CC[C@@](C)([C@@H]4O[C@@H]([C@H]5O[C@@](O)(CO)[C@H](C)C[C@@H]5C)C[C@@H]4C)O3)C[C@H]2C)[C@@H]1C [Nigericin, nigericin] | inhibition | did not reduce | did not reduce | 3350 ± 770 nM | 0.08 µM | 139 ± 23 | 0.02 µM | weak irreversible inhibition | 0.16 ± 0.05 µM | complete absence of plaques | 0.63 µM | β-catenin levels ([9]; effect increased from 24 to 48 and 72 hpi): significant decrease; expression of Wnt [9, 17]: decreased expression; expression of Wnt 5a/b [9, 17]: decreased expression; expression of axin 1 [9, 17]: decreased expression; expression of pWnt [9, 17]: decreased expression; expression of the late HCMV gene pp65 ([10]; 100 nM): significant inhibition; IE1 expression ([10]; 100 nM, 24, 48 and 72 hpi): no obvious inhibition; IE2 expression ([10]; 100 nM, 24, 48 and 72 hpi): major inhibition; UL44 expression ([10]; 100 nM, 24, 48 and 72 hpi): major inhibition
CC[C@@]1([C@@H]2O[C@@H]([C@H]3O[C@@](O)(CO)[C@H](C)C[C@@H]3C)C[C@@H]2C)CC[C@H]([C@]2(C)CC[C@]3(C[C@H](O)[C@@H](C)[C@@H]([C@@H](C)[C@@H](OC)[C@H](C)C(=O)O)O3)O2)O1 [Monensin] | inhibition | did not reduce | did not reduce | 3370 ± 520 nM | 0.08 µM | 138 ± 14 | 0.02 µM | weak irreversible inhibition | 0.34 ± 0.04 µM | complete absence of plaques | 1.6 ± 0.14 µM | 
Nc1nc(O)c2ncn(COC(CO)CO)c2n1 [GCV, ganciclovir] |  |  |  | 247000 ± 33400 nM |  | 96 ± 14 | 2.7 ± 0.1 µM | fully reversible |  |  |  | CC50 [11]: > 100000 nM; EC50 [12]: 7600 nM; CC50 [13]: > 100000 nM
